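Test compounds were applied to cells in 96-well plates for 48 hours at 5 doses. GI50 is the concentration that inhibits growth by half.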 The source made the active and inactive calls. Cut-off read from the data, not from the text of the source: active = GI50 up to about 1.1 µM and inactive = higher.
Columns and labels:
Test in all cases: NCI tumour cell line growth inhibition, 48 h
OVCAR-5 = tested on: OVCAR-5
ACHN = tested on: ACHN
OVCAR-3 = tested on: OVCAR-3
IGROV-1 = tested on: IGROV-1
NCI-H460 = tested on: NCI-H460
RXF 393 = tested on: RXF 393
HCT-116 = tested on: HCT-116
CCRF-CEM = tested on: CCRF-CEM
Hs-578T = tested on: Hs-578T
M14 = tested on: M14
TK-10 = tested on: TK-10
K562 = tested on: K562
SNB-19 = tested on: SNB-19
UACC-257 = tested on: UACC-257
COLO 205 = tested on: COLO 205
SK-MEL-2 = tested on: SK-MEL-2
UO-31 = tested on: UO-31
MDA-MB-435 = tested on: MDA-MB-435
SF-295 = tested on: SF-295
HL-60 = tested on: HL-60
Malme-3M = tested on: Malme-3M
NCI/ADR-RES = tested on: NCI/ADR-RES
NCI-H226 = tested on: NCI-H226
NCI-H23 = tested on: NCI-H23
U-251 = tested on: U-251
HOP-62 = tested on: HOP-62
MDA-MB-231 = tested on: MDA-MB-231
SK-OV-3 = tested on: SK-OV-3
HOP-92 = tested on: HOP-92
A549 = tested on: A549
LOX IMVI = tested on: LOX IMVI
DU-145 = tested on: DU-145
MDA-N = tested on: MDA-N
A498 = tested on: A498
RPMI-8226 = tested on: RPMI-8226
CAKI-1 = tested on: CAKI-1
SR = tested on: SR
KM12 = tested on: KM12
SW-620 = tested on: SW-620
EKVX = tested on: EKVX
UACC-62 = tested on: UACC-62
SN12C = tested on: SN12C
SNB-75 = tested on: SNB-75
SK-MEL-5 = tested on: SK-MEL-5
SF-268 = tested on: SF-268
HCT-15 = tested on: HCT-15
OVCAR-8 = tested on: OVCAR-8
PC-3 = tested on: PC-3
SF-539 = tested on: SF-539
OVCAR-4 = tested on: OVCAR-4
NCI-H522 = tested on: NCI-H522
MCF7 = tested on: MCF7
SK-MEL-28 = tested on: SK-MEL-28
BT-549 = tested on: BT-549
T47D = tested on: T47D
HT-29 = tested on: HT-29
MOLT-4 = tested on: MOLT-4
786-0 = tested on: 786-0
HCC 2998 = tested on: HCC 2998

Compound: CCCCN1CN2C(=O)C(C(=O)OCC)C(=O)c3sc4nc(SC)nc1c4c32 (centres undefined)
- GI50 (OVCAR-5): 18.6 µM (inactive)
- GI50 (ACHN): 17 µM (inactive)
- GI50 (OVCAR-3): 19 µM (inactive)
- GI50 (IGROV-1): 18.9 µM (inactive)
- GI50 (NCI-H460): 19.5 µM (inactive)
- GI50 (RXF 393): 20.5 µM (inactive)
- GI50 (HCT-116): 15.9 µM (inactive)
- GI50 (CCRF-CEM): 34 µM (inactive)
- GI50 (Hs-578T): < 0.01 µM (active)
- GI50 (M14): 22.4 µM (inactive)
- GI50 (TK-10): 14.9 µM (inactive)
- GI50 (K562): 35.5 µM (inactive)
- GI50 (SNB-19): 19 µM (inactive)
- GI50 (UACC-257): 19 µM (inactive)
- GI50 (COLO 205): 18.7 µM (inactive)
- GI50 (SK-MEL-2): 19.8 µM (inactive)
- GI50 (UO-31): 21.1 µM (inactive)
- GI50 (MDA-MB-435): 18.2 µM (inactive)
- GI50 (SF-295): 16.6 µM (inactive)
- GI50 (HL-60): 46.6 µM (inactive)
- GI50 (Malme-3M): 15 µM (inactive)
- GI50 (NCI/ADR-RES): 19 µM (inactive)
- GI50 (NCI-H226): 19 µM (inactive)
- GI50 (NCI-H23): 18 µM (inactive)
- GI50 (U-251): 18.2 µM (inactive)
- GI50 (HOP-62): 15.7 µM (inactive)
- GI50 (MDA-MB-231): 17.9 µM (inactive)
- GI50 (SK-OV-3): 17.6 µM (inactive)
- GI50 (HOP-92): 14.9 µM (inactive)
- GI50 (A549): 19.9 µM (inactive)
- GI50 (LOX IMVI): 20.5 µM (inactive)
- GI50 (DU-145): 19 µM (inactive)
- GI50 (MDA-N): 17.1 µM (inactive)
- GI50 (A498): 1.53 µM (inactive)
- GI50 (RPMI-8226): 21.1 µM (inactive)
- GI50 (CAKI-1): 17.3 µM (inactive)
- GI50 (SR): 33.1 µM (inactive)
- GI50 (KM12): 16.8 µM (inactive)
- GI50 (SW-620): 18.4 µM (inactive)
- GI50 (EKVX): 17.9 µM (inactive)
- GI50 (UACC-62): 17.7 µM (inactive)
- GI50 (SN12C): 19.7 µM (inactive)
- GI50 (SNB-75): 17.5 µM (inactive)
- GI50 (SK-MEL-5): 12.3 µM (inactive)
- GI50 (SF-268): 19.9 µM (inactive)
- GI50 (HCT-15): 20 µM
- GI50 (OVCAR-8): 21.6 µM (inactive)
- GI50 (PC-3): 19.2 µM (inactive)
- GI50 (SF-539): 18.5 µM (inactive)
- GI50 (OVCAR-4): 18.8 µM (inactive)
- GI50 (NCI-H522): 18.9 µM (inactive)
- GI50 (MCF7): 21 µM (inactive)
- GI50 (SK-MEL-28): 19.8 µM (inactive)
- GI50 (BT-549): 16.6 µM (inactive)
- GI50 (T47D): 19.7 µM (inactive)
- GI50 (HT-29): 19.8 µM (inactive)
- GI50 (MOLT-4): 29 µM (inactive)

Compound: COc1ncnc2c1cnn2Cc1cn(CCCCO)nn1
- GI50 (OVCAR-5): > 100 µM (inactive)
- GI50 (ACHN): > 100 µM (inactive)
- GI50 (OVCAR-3): > 100 µM (inactive)
- GI50 (IGROV-1): > 100 µM (inactive)
- GI50 (NCI-H460): > 100 µM (inactive)
- GI50 (RXF 393): > 100 µM (inactive)
- GI50 (HCT-116): > 100 µM (inactive)
- GI50 (CCRF-CEM): > 100 µM (inactive)
- GI50 (Hs-578T): > 100 µM (inactive)
- GI50 (786-0): > 100 µM (inactive)
- GI50 (M14): > 100 µM (inactive)
- GI50 (TK-10): > 100 µM (inactive)
- GI50 (K562): > 100 µM (inactive)
- GI50 (SNB-19): > 100 µM (inactive)
- GI50 (UACC-257): > 100 µM (inactive)
- GI50 (COLO 205): > 100 µM (inactive)
- GI50 (SK-MEL-2): > 100 µM (inactive)
- GI50 (UO-31): > 100 µM (inactive)
- GI50 (MDA-MB-435): > 100 µM (inactive)
- GI50 (SF-295): > 100 µM (inactive)
- GI50 (HCC 2998): > 100 µM (inactive)
- GI50 (Malme-3M): > 100 µM (inactive)
- GI50 (NCI/ADR-RES): > 100 µM (inactive)
- GI50 (NCI-H226): > 100 µM (inactive)
- GI50 (NCI-H23): > 100 µM (inactive)
- GI50 (U-251): > 100 µM (inactive)
- GI50 (HOP-62): > 100 µM (inactive)
- GI50 (MDA-MB-231): > 100 µM (inactive)
- GI50 (SK-OV-3): > 100 µM (inactive)
- GI50 (HOP-92): > 100 µM (inactive)
- GI50 (A549): > 100 µM (inactive)
- GI50 (LOX IMVI): > 100 µM (inactive)
- GI50 (DU-145): > 100 µM (inactive)
- GI50 (MDA-N): > 100 µM (inactive)
- GI50 (A498): > 100 µM (inactive)
- GI50 (RPMI-8226): > 100 µM (inactive)
- GI50 (CAKI-1): > 100 µM (inactive)
- GI50 (SR): > 100 µM (inactive)
- GI50 (KM12): > 100 µM (inactive)
- GI50 (SW-620): > 100 µM (inactive)
- GI50 (EKVX): > 100 µM (inactive)
- GI50 (UACC-62): > 100 µM (inactive)
- GI50 (SN12C): > 100 µM (inactive)
- GI50 (SK-MEL-5): > 100 µM (inactive)
- GI50 (SF-268): > 100 µM (inactive)
- GI50 (HCT-15): > 100 µM
- GI50 (OVCAR-8): > 100 µM (inactive)
- GI50 (PC-3): > 100 µM (inactive)
- GI50 (SF-539): > 100 µM (inactive)
- GI50 (OVCAR-4): > 100 µM (inactive)
- GI50 (NCI-H522): > 100 µM (inactive)
- GI50 (MCF7): > 100 µM (inactive)
- GI50 (SK-MEL-28): > 100 µM (inactive)
- GI50 (BT-549): > 100 µM (inactive)
- GI50 (T47D): > 100 µM (inactive)
- GI50 (HT-29): > 100 µM (inactive)
- GI50 (MOLT-4): > 100 µM (inactive)

From ChEMBL document CHEMBL1201862, “PubChem BioAssay data set” (2004)
